Source: patent US9220705B2, “Method of treating colorectal cancer” (priority 2013, dated 2015)

Key:
[1] = system: panel of human tumor cell lines (A431, MCF-7, A375, HCT-15, SW480, CaCo-2, DLD-1); experiment: MTT cytotoxicity, comparison over the Table 1 panel; type: cell-based; conditions: average over seven cell lines of Table 1
Description: (§1) After 24 h, the medium was removed and replaced with a fresh one containing the compound to be studied, at the appropriate concentration, dissolved in 0.9% sodium chloride solution just before use. Triplicate cultures were established for each treatment. After 72 h, each well was treated with […] of a 5 mg mL^−1 MTT saline solution and, after 5 h of incubation, 100 μL of a sodium dodecylsulfate (SDS) solution in 0.01 M HCl were added. After an overnight incubation, the inhibition of cell growth induced by the tested complexes was determined by measuring the absorbance of each well at 570 nm using a BioRad 680 microplate reader. Mean absorbance for each drug dose was expressed as percentage of the control and plotted vs. drug concentration. Dose-response curves were fitted and IC50 values were calculated with four parameter logistic model (4PL).
The cytotoxicity was evaluated by means of the MTT test for 72 h treatment with increasing concentrations of the tested compounds.

[2] = system: 2008/C13*, LoVo/LoVo-OXP, LoVo MDR; experiment: MTT cytotoxicity, comparison over the Table 2 cell lines; type: cell-based, human; conditions: 2008 ovarian and LoVo colon sensitive cells
Description: as §1
(§2) A LoVo cell line retaining a multidrug resistance phenotype was also considered (LoVo MDR). Cross-resistance profiles were evaluated by means of the resistance factor (RF), which is defined as the ratio between the IC50 value for the resistant cells and that arising from the sensitive cells (Table 2).

[3] = system: C13* cisplatin resistant ovarian cancer cells; experiment: MTT cytotoxicity assay, cross-resistance profile; type: cell-based, human
Description: (§3) Human breast (MCF-7) and colon (HCT-15, DDL1, SW480 and CaCo-2) carcinoma cell lines along with melanoma (A375) were obtained from the American Type Culture Collection (ATCC, Rockville, Md.). A431 are human cervical carcinoma cells kindly provided by Prof. F. Zunino (Molecular Pharmacology Unit, Experimental Oncology and Molecular Medicine, Istituto Nazionale dei Tumori, Milan, Italy). […] G. Marverti (Dept. of Biomedical Science, University of Modena, Italy). LoVo human colon-carcinoma cell line and its multidrug-resistant sublime (LoVo MDR) were kindly provided by Prof F. Maj one (Department of Biology of Padova University, Italy). […] Cell lines were maintained in the logarithmic phase at 37° C. in a 5% carbon dioxide atmosphere using the following culture media containing 10% fetal calf serum (Euroclone, Milan, Italy), antibiotics (50 units mL^−1 penicillin and 50 μg mL^−1 streptomycin), and 2 mM L-glutamine in: i) RPMI-1640 medium (Euroclone) for MCF-7, HCT-15, A431, DLD 1, 2008, and C13* cells; ii) F-12 HAM'S (Sigma Chemical Co.) for LoVo, LoVo MDR, and LoVo-OXP cells; iii) DMEM for A375 and SW 480 cells; and iv) MEM for CaCo-2 cells.
(§4) The growth inhibitory effect towards tumor cell lines was evaluated by means of the MTT (3-(4,5-dimethylthiazol-2-yl)-2,5-diphenyltetrazolium bromide) assay (Alley, M. C., et al., Cancer Res. 1988, 48, 589-601).
as §1, with “Briefly, depending upon the growth characteristics of the cell line, 3-8×10^3 cells well^−1, were seeded in 96-well microplates in growth medium (100 μL) and then incubated at 37° C. in a 5% carbon dioxide atmosphere. After 24” for “After 24”
as §2

[4] = system: LoVo-OXP oxaliplatin resistant colon cancer cells; experiment: MTT cytotoxicity assay, cross-resistance profile; type: cell-based, human
Description: as §3, §4
as §1, with “Briefly, depending upon the growth characteristics of the cell line, 3-8×10^3 cells well^−1, were seeded in 96-well microplates in growth medium (100 μL) and then incubated at 37° C. in a 5% carbon dioxide atmosphere. After 24” for “After 24”
as §2

[5] = system: 2008 ovarian cancer cells; experiment: MTT cytotoxicity assay, cross-resistance profile; type: cell-based, human; conditions: 72 h
Description: as §3, §4
as §1, with “Briefly, depending upon the growth characteristics of the cell line, 3-8×10^3 cells well^−1, were seeded in 96-well microplates in growth medium (100 μL) and then incubated at 37° C. in a 5% carbon dioxide atmosphere. After 24” for “After 24”
as §2

[6] = system: LoVo colon cancer cells; experiment: MTT cytotoxicity assay, cross-resistance profile; type: cell-based, human; conditions: 72 h
Description: Human breast (MCF-7) and colon (HCT-15, DDL1, SW480 and CaCo-2) carcinoma cell lines along with melanoma (A375) were obtained from the American Type Culture Collection (ATCC, Rockville, Md.). A431 are human cervical carcinoma cells kindly provided by Prof. F. Zunino (Molecular Pharmacology Unit, Experimental Oncology and Molecular Medicine, Istituto Nazionale dei Tumori, Milan, Italy). […] G. Marverti (Dept. of Biomedical Science, University of Modena, Italy). LoVo human colon-carcinoma cell line and its multidrug-resistant sublime (LoVo MDR) were kindly provided by Prof F. Maj one (Department of Biology of Padova University, Italy).
as §4
as §1, with “Briefly, depending upon the growth characteristics of the cell line, 3-8×10^3 cells well^−1, were seeded in 96-well microplates in growth medium (100 μL) and then incubated at 37° C. in a 5% carbon dioxide atmosphere. After 24” for “After 24”
as §2

[7] = system: LoVo MDR multidrug resistant colon carcinoma subline; experiment: MTT cytotoxicity assay, cross-resistance profile; type: cell-based, human
Description: as §3, §4
as §1, with “Briefly, depending upon the growth characteristics of the cell line, 3-8×10^3 cells well^−1, were seeded in 96-well microplates in growth medium (100 μL) and then incubated at 37° C. in a 5% carbon dioxide atmosphere. After 24” for “After 24”
as §2
In Table 2 are also reported the results obtained in a multidrug resistant (MDR) colon carcinoma subline, LoVo MDR, in which the resistance to doxorubicin, a drug belonging to the MDR spectrum, is associated with an overexpression of multi-specific drug transporters, such as the 170 kDa P-glycoprotein (P-gp) (Wersinger, C., et al., Amino Acids 2000, 19, 667-685). It is well known that acquired MDR, whereby cells become refractory to multiple drugs, poses most important challenge to the success of anticancer chemotherapy.

[8] = system: A375; experiment: MTT cytotoxicity assay, 72 h; type: cell-based, human; conditions: A375, skin
Description: as §3, §4
as §1, with “Briefly, depending upon the growth characteristics of the cell line, 3-8×10^3 cells well^−1, were seeded in 96-well microplates in growth medium (100 μL) and then incubated at 37° C. in a 5% carbon dioxide atmosphere. After 24” for “After 24”
(§5) Compound 1 was prepared for the first time almost twenty years ago however, until now, it had been tested (both in vitro and in vivo) only in a limited number of tumor cell lines (Hoeschele, J. D., et al., J. Med. Chem. 1994, 37, 2630-2636 and Shamsuddin, S., et al., J. Inorg. Biochem. 1996, 61, 291-301). The Pt(II) and Pt(IV) complexes containing isomeric forms of diaminocyclohexane, [PtCl2(cis-1,4-DACHA](1), [PtCl2(1R,2R-DACH)] (2), [Pt(OXA)(cis-1,4-DACH)] (3), cis,trans,cis-[Pt^IVCl2(OH)2(cis-1,4-DACH)] (4), cis,trans,cis-[Pt^IVCl2(DCA)2(cis-1,4-DACH)] (5), [Pt(CBDCA)(cis-1,4-DACH)] (6), cis,trans,cis-[Pt^IV(OXA)(OH)2(cis-1,4-DACH)] (7), and cis,trans,cis-[Pt^IV(OXA)(DCA)2(cis-1,4-DACH)] (8) were evaluated for their cytotoxic activity towards a panel of human tumor cell lines including cervical (A431), breast (MCF-7), cancers along with a melanoma (A375) and 4 different colon cancer cell lines corresponding to different stages of the disease progression (HCT-15, SW480, CaCo-2, DLD-1). The cytotoxicity was evaluated by means of the MTT test for 72 h treatment with increasing concentrations of the tested compounds.

[9] = system: HCT-15; experiment: MTT cytotoxicity assay, 72 h; type: cell-based, human; conditions: HCT-15, colon
Description: as §3, §4
as §1, with “Briefly, depending upon the growth characteristics of the cell line, 3-8×10^3 cells well^−1, were seeded in 96-well microplates in growth medium (100 μL) and then incubated at 37° C. in a 5% carbon dioxide atmosphere. After 24” for “After 24”
as §5

[10] = system: MCF-7; experiment: MTT cytotoxicity assay, 72 h; type: cell-based, human; conditions: MCF-7, breast
Description: as §3, §4
as §1, with “Briefly, depending upon the growth characteristics of the cell line, 3-8×10^3 cells well^−1, were seeded in 96-well microplates in growth medium (100 μL) and then incubated at 37° C. in a 5% carbon dioxide atmosphere. After 24” for “After 24”
as §5

[11] = system: SW480; experiment: MTT cytotoxicity assay, 72 h; type: cell-based, human; conditions: SW480, colon
Description: as §3, §4
as §1, with “Briefly, depending upon the growth characteristics of the cell line, 3-8×10^3 cells well^−1, were seeded in 96-well microplates in growth medium (100 μL) and then incubated at 37° C. in a 5% carbon dioxide atmosphere. After 24” for “After 24”
as §5

[12] = system: DLD-1; experiment: MTT cytotoxicity assay, 72 h; type: cell-based, human; conditions: DLD-1, colon
Description: as §3, §4
as §1, with “Briefly, depending upon the growth characteristics of the cell line, 3-8×10^3 cells well^−1, were seeded in 96-well microplates in growth medium (100 μL) and then incubated at 37° C. in a 5% carbon dioxide atmosphere. After 24” for “After 24”
as §5

[13] = system: A431; experiment: MTT cytotoxicity assay, 72 h; type: cell-based, human; conditions: A431, cervix
Description: as §3, §4
as §1, with “Briefly, depending upon the growth characteristics of the cell line, 3-8×10^3 cells well^−1, were seeded in 96-well microplates in growth medium (100 μL) and then incubated at 37° C. in a 5% carbon dioxide atmosphere. After 24” for “After 24”
as §5

Compound	average cytotoxic activity compared with reference drugs [1]	cytotoxic activity towards sensitive lines compared with reference drugs [2]	IC50 ([3]; C13*, 72 h, MTT) [µM]	R.F. (resistance factor) ([3]; IC50 C13* / IC50 2008, cross-resistance with cisplatin)	R.F. (resistance factor) ([4]; IC50 LoVo-OXP / IC50 LoVo, cross-resistance with oxaliplatin)	IC50 ([4]; LoVo-OXP, 72 h, MTT) [µM]	IC50 [5] [µM]	IC50 [6] [µM]	R.F. (resistance factor) ([7]; IC50 LoVo-MDR / IC50 LoVo)	IC50 ([7]; LoVo-MDR, 72 h, MTT) [µM]	IC50 [8] [µM]	IC50 [9] [µM]	IC50 [10] [µM]	IC50 [11] [µM]	IC50 [12] [µM]	IC50 [13] [µM]
O=C([O][Pt]1([Cl])([Cl])([O]C(=O)C(Cl)Cl)[NH][C@H]2CC[C@H](CC2)[NH]1)C(Cl)Cl [Compound 5, (OC-6-33)-dichloro(cis-1,4-cyclohexanediamine-N,N′)bisdichloroacetateplatinum]	rather similar to oxaliplatin	better than cisplatin and similar to oxaliplatin	–	–	–	–	–	–	–	–	–	–	–	–	–	–
O=C1[O][Pt]2([NH][C@H]3CC[C@H](CC3)[NH]2)[O]C1=O [Compound 3, [SP-4-2-(cis)]-(1,4,cyclohexanediamine-N,N′)[ethanedioato(2)-O,O^1]platinum]	lower than that of oxaliplatin and comparable to that of compound 2 and cisplatin	less effective than oxaliplatin and cisplatin towards ovarian sensitive cell line and rather similar to cisplatin against LoVo colon cancer cells	–	–	–	–	–	–	–	–	–	–	–	–	–	–
O=C1[O][Pt]2([OH])([OH])([NH]C3CCC(CC3)[NH]2)[O]C1=O [Compound 7, (OC-6-33)-[ethanedioato(2)-O,O′](cis-1,4-cyclohexanediamine-N,N′)dihydroxyplatinum]	–	less effective than oxaliplatin and cisplatin	78.7 ± 4.6	1.3	1.1	66.9 ± 5.12	59.5 ± 3.64	61.2 ± 5.51	1.1	69.4 ± 4.83	75.1 ± 6.54	72.1 ± 4.74	112 ± 9.52	69.4 ± 11.5	82.2 ± 5.54	59.5 ± 3.64
